Each structure is given as a SMILES string.

The target in the test is Kallikrein-7 (Homo sapiens, UniProt P49862).
Sequence of Kallikrein-7 (P49862 whole entry): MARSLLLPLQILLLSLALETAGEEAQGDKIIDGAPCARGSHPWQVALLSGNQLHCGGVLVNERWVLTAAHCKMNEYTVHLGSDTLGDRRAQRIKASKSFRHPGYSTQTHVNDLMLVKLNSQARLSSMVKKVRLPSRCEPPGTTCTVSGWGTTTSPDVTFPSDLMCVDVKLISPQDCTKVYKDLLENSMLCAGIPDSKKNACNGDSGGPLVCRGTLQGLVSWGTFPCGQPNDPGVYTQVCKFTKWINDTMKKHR
Regarding `COC(=O)C1=CN=CC(C(=O)OC)C1c1ccc(C(=O)OC)cc1` (stereo not given) [MLS000111732], the EC50 – broadly, the midpoint of the concentration-response curve – is above 69.5 µM.

For the compound `COC(=O)CC1=C(C(=O)OC)C(c2ccccc2[N+](=O)[O-])C(C#N)C(=N)O1` [methyl (4S)-6-amino-5-cyano-2-(2-methoxy-2-oxoethyl)-4-(2-nitrophenyl)-4H-pyran-3-carboxylate], the concentration giving a half-maximal response (EC50) was 8.2 µM.

In turn, `COC(=O)c1ccc(C2C3=C(CC(C)(C)CC3=O)N=C(C)C2C#N)cc1` (stereo not given) [methyl 4-(3-cyano-2,7,7-trimethyl-5-oxo-1,4,6,8-tetrahydroquinolin-4-yl)benzoate] had an EC50 of 20.8 µM.

For `CC1=NC2=C(C(=O)CC(C)(C)C2)C(c2cccnc2)C1C#N` (stereo not given) [2,7,7-trimethyl-5-oxo-4-pyridin-3-yl-1,4,6,8-tetrahydroquinoline-3-carbonitrile], the EC50 was above 69.5 µM.

Take `COc1ccccc1C1CC(c2ccccc2)=Nc2nnnn21` (stereo not given) [SMR000107979]: the midpoint of the response, the EC50, lay at 12.1 µM.

For the compound `COC(=O)c1[nH]n(-c2ccccc2)c2c(O)n(-c3ccccc3OC)c(=O)c1-2` [methyl 5-(2-methoxyphenyl)-4,6-bis(oxidanylidene)-1-phenyl-3a,6a-dihydropyrrolo[3,4-c]pyrazole-3-carboxylate], the EC50 was above 69.5 µM.

`COc1ccccc1C1CC(c2ccc(C)cc2)=Nc2nnnn21` (stereo not given) had an EC50 of 23.5 µM.

On to `C=CCOC(=O)C1=C(C)N=C(SCC(=O)NC(=O)OCC)C(C#N)C1c1cccnc1` (stereo not given) [prop-2-enyl 5-cyano-6-[2-(ethoxycarbonylamino)-2-oxidanylidene-ethyl]sulfanyl-2-methyl-4-pyridin-3-yl-1,4-dihydropyridine-3-carboxylate], for which the EC50 was 4.56 µM.

In turn, `COCCN1Cc2cc(=O)n3c(nc4ccccc43)c2=C1N` [SMR000369291] came in with a 50% effective concentration (EC50) above 69.5 µM.

Compound `COc1ccc(C2C(C(=O)N3CCOCC3)=C(C)N=C3CC(C)(C)CC(=O)C32)c(OC)c1` (stereo not given) [MLS000076547] showed an EC50 of 52.4 µM.
